Target: mGluR4 (Homo sapiens, UniProt Q14833)
Assay: competitive binding (radioligand replacement) assay with [3H]4 in mGluR4 transfected CHO cells
Parameters: expressed in transfected cells; host or cells: CHO cells
Conditions: 2 nM [3H]4, read-out: IC50 (nM), affinity to mGluR4
Description: In Vitro mGluR4 Binding Assay. CHO cells expressing mGluR4 were used for all binding assay protocols. For competitive binding, 2 nM of [^3H]4 was used together with increased concentrations of test compounds ranging from 0.01 nM to 10 μM. Each test tube contained 50 000 freshly harvested CHO cells expressing mGluR4 cultured in HAMs cell culture medium with 100 nM of glutamate, penicillin-streptomycin (100 units), and 1 mM G418. [3H]4 (2 nM) was added to the cell extract with and without test compounds on ice and then incubated for 30 min at room temperature. Samples were centrifuged at 1200 rpm for 10 min at 4° C. and washed three times with a cold cell culture medium as a washing buffer. Samples were lysed by adding 100 μL of 0.5% NaOH and heated using a heating block (56° C., 30 min). Samples were cooled with an ice bath and transferred to Solvent-Saver scintillation vials (VWR International LLC.). To obtain binding parameters, the scintillation liquid (PerkinElmer, Optima Gold) was added prior to counting with a scintillation counter (Packard TriCarb Model, 1 min/vial). Nonspecific binding was determined using 10 μM of nonradioactive test compound, and specific binding was determined by extracting the nonspecific binding from total binding. All measurements were done in triplicate and analyzed with GraphPad Prism software (GraphPad Software Inc.).

Chain of mGluR4 (Q14833 33-912): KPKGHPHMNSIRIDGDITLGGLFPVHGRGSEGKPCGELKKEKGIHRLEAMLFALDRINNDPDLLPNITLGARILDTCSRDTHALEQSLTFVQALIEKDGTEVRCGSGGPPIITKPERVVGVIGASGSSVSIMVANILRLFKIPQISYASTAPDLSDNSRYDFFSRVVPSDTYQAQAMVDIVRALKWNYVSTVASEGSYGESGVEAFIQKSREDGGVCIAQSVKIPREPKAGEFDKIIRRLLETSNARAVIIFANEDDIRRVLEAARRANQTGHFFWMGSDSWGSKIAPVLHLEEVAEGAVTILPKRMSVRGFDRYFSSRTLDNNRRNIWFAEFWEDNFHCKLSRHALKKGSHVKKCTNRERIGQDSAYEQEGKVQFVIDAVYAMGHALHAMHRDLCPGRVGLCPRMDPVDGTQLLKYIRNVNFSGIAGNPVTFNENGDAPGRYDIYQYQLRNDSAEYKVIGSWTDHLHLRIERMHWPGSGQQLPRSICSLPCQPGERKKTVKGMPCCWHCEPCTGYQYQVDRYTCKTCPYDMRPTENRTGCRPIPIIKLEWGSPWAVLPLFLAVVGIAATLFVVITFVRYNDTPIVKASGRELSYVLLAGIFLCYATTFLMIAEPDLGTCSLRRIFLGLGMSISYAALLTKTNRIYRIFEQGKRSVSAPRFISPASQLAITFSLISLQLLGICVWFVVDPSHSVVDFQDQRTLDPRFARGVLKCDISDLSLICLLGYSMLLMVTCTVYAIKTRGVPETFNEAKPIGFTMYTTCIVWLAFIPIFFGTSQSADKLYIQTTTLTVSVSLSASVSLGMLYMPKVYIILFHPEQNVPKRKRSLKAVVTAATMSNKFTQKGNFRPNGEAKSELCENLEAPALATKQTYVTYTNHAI

In the case of [2H]C([2H])(F)Sc1cc(NC(=O)c2ccccn2)ccc1Cl [Compound 15, N-(4-Chloro-3-((fluoromethyl-d2)thio)phenyl)picolinamide], the IC50 is reported as 3.4 nM.

From patent US20220118117A1, “MODULATORS OF METABOTROPIC GLUTAMATE RECEPTOR 4” (The General Hospital Corporation, priority 2019, published 2022)
